Results as given in US5487990A (The General Hospital Corporation, priority 1992, dated 1996).
Several values for one entry are separate records, joined by “and”; a condition that tells them apart may be missing. Equal values may be shown once. Entries after “also recorded” stand apart in the source; their conditions may differ. Read-outs that look alike come from different tables or passages of the source.

What was measured:
[1] = biological target: T1, Acetyl-CoA Hydrolase from S. cerevisiae (Saccharomyces cerevisiae, UniProt P32316); assay: biochemical; type: biochemical; conditions: for remaining activity at 10000 µM / remaining activity at 500 µM / remaining activity at 5000 µM / remaining activity at 1000 µM: read-out: Enzyme Activity (%)
T1 sequence (P32316 1-526): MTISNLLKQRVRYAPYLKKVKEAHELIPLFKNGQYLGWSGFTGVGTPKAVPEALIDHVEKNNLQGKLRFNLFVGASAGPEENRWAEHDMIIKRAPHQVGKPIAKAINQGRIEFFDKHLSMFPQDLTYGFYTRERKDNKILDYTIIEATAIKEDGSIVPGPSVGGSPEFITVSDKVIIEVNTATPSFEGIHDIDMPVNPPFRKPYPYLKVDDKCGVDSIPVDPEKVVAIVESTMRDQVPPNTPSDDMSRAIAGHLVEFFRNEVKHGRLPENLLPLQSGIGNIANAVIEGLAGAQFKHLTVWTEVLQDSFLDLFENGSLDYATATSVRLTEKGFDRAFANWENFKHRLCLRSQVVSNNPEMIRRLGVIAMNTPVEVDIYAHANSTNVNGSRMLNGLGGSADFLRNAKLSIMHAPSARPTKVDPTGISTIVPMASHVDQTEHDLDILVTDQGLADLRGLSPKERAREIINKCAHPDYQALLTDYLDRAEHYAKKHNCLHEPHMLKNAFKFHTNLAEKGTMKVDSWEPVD

[2] = biological target: T1, Acetyl-CoA Hydrolase from S. cerevisiae; assay: biochemical; conditions: for remaining activity at 100 µM / remaining activity at 1000 µM / remaining activity at 10000 µM / remaining activity at 5000 µM: pH 7.4, read-out: Enzyme Activity (%); for Enzyme Activity (%): 100 mM potassium phosphate, pH 7.4, None = 100
Procedure: The assay mixture was incubated at 30° C. for 0.30 s, 1 min, 2 min, 3 min, 4 min, and 5 min. The reaction was stopped by adding 20 μl of 10 M acetic acid. The sample was evaporated by N2 stream at 30° C. to dryness in a fume hood, dissolved in 100 μl H2 O, and transferred to a scintillation vial containing 10 ml Ready-Solv EP scintillation cocktail. The sample tube was washed twice with 100 μl H2 O, each wash was transferred to the scintillation vial, and the radioactivity was determined by scintillation counting for 1 min.
nucleotides and divalent cations in 100 mM potassium phosphate, pH 7.4.
The enzyme activity was determined under standard radioactive assay
conditions using ACTH (1-24) (N = 3), as described in the Examples.
acylCoA in 100 mM phosphate buffer, pH 7.4.

[3] = test system: mitochondrial acetyl-CoA hydrolase; conditions: cited from earlier work
[4] = biological target: T2, soluble cytosolic acetyl-CoA hydrolase found in rat liver (Rattus norvegicus, UniProt Q99NB7); conditions: rat liver cytoplasmic, cold-labile enzyme; cited from earlier work
T2 construct: host or cells: rat liver cytoplasm (Prass et al. 1980; Soling et al. 1985)
T2 sequence (Q99NB7 whole entry): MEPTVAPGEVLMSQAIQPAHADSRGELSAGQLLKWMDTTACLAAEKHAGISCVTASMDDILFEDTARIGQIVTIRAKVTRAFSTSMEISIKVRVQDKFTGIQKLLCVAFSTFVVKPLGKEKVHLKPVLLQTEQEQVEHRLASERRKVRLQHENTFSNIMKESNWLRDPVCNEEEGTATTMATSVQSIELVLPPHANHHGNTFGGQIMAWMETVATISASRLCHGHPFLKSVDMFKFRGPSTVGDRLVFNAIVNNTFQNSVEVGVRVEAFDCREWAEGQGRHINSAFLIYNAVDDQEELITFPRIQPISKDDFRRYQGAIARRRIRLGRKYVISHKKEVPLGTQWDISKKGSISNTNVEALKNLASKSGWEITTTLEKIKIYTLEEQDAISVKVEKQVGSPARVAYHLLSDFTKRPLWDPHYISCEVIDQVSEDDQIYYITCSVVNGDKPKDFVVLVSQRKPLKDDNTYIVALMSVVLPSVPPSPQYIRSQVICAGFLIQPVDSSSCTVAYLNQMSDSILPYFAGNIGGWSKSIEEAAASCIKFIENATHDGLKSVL

[5] = biological target: T1, Acetyl-CoA Hydrolase from S. cerevisiae; assay: Substrate specificity, colorimetric assay (DNTB, A412); type: biochemical; conditions: read-out: Relative Activity (%)
[6] = biological target: Human ACTH (1-24) (human) (UniProt P01189)

Molecule: O[C@@H](CS)[C@@H](O)CS (relative stereo) [DTT]
- inactivation by chemical modification (in words) [1]: did not affect enzyme activity
- remaining activity at 10000 µM ([1]; 0.25 h): 104%

Molecule: OCCS [2-mercaptoethanol]
- inactivation by chemical modification (in words) [1]: did not affect enzyme activity
- remaining activity at 10000 µM ([1]; 0.25 h): 101%

Molecule: Nc1ncnc2c1ncn2[C@@H]1O[C@H](COP(=O)(O)OP(=O)(O)O)[C@@H](O)[C@H]1O [ADP]
- effect on yeast enzyme activity (in words) [2]: not affected
- remaining activity at 100 µM [2]: 98%
- remaining activity at 1000 µM [2]: 94%
- remaining activity at 10000 µM [2]: 91%
- effect on enzyme (in words) [3]: not inhibited; also recorded: not affected
- effect on enzyme (in words) [4]: inhibited

Molecule: Nc1ncnc2c1ncn2[C@@H]1O[C@H](COP(=O)(O)O)[C@@H](O)[C@H]1O [AMP]
- remaining activity at 100 µM [2]: 96%
- remaining activity at 1000 µM [2]: 89%
- remaining activity at 10000 µM [2]: 81%

Molecule: Nc1ncnc2c1ncn2[C@@H]1O[C@H](COP(=O)(O)OP(=O)(O)OP(=O)(O)O)[C@@H](O)[C@H]1O [ATP]
- effect on yeast enzyme activity (in words) [2]: not affected
- remaining activity at 100 µM [2]: 101%
- remaining activity at 1000 µM [2]: 99%
- remaining activity at 10000 µM [2]: 96%
- effect on enzyme (in words) [3]: not activated; also recorded: not affected

Molecule: CC(=O)CC(=O)SCCNC(=O)CCNC(=O)[C@H](O)C(C)(C)COP(=O)(O)OP(=O)(O)OC[C@H]1O[C@@H](n2cnc3c(N)ncnc32)[C@H](O)[C@@H]1OP(=O)(O)O [Acetoacetyl-CoA]
- remaining activity at 100 µM [2]: 98%
- remaining activity at 1000 µM [2]: 92%
- remaining activity at 5000 µM [2]: 90%
- activity at 250 µM [5]: 5%

Molecule: CCCC(=O)SCCNC(=O)CCNC(=O)[C@H](O)C(C)(C)COP(=O)(O)OP(=O)(O)OC[C@H]1O[C@@H](n2cnc3c(N)ncnc32)[C@H](O)[C@@H]1OP(=O)(O)O [Butyryl-CoA]
- remaining activity at 100 µM [2]: 95%
- remaining activity at 1000 µM [2]: 86%
- remaining activity at 5000 µM [2]: 62%
- activity at 250 µM [5]: 4%

Molecule: [Ca+2].[Cl-].[Cl-] [CaCl2]
- Enzyme Activity (%) ([2]; addition 1 mM): 97%
- Enzyme Activity (%) ([2]; addition 10 mM): 84%

Molecule: [Cl][Cd][Cl] [CdCl2]
- Enzyme Activity (%) ([2]; addition 1 mM): 91%
- Enzyme Activity (%) ([2]; addition 10 mM): 48%

Molecule: CC(C)(COP(=O)(O)OP(=O)(O)OC[C@H]1O[C@@H](n2cnc3c(N)ncnc32)[C@H](O)[C@@H]1OP(=O)(O)O)[C@@H](O)C(=O)NCCC(=O)NCCS [CoASH, coenzyme A]
- effect on yeast enzyme activity (in words) [2]: only weakly inhibited
- inhibition at 25 µM ([2]; read-out: inhibition of hydrolysis of [1-14C] acetyl-CoA): < 30%
- effect on enzyme (in words) [3]: only weakly inhibited; also recorded: weak inhibitor
- effect on enzyme (in words) [4]: inhibited; also recorded: strong product inhibitor

Molecule: [Cl-].[Cl-].[Co+2] [CoCl2]
- Enzyme Activity (%) ([2]; addition 1 mM): 86%
- Enzyme Activity (%) ([2]; addition 10 mM): 51%

Molecule: O=S(=O)([O-])[O-].[Cu+2] [CuSO4]
- Enzyme Activity (%) ([2]; addition 1 mM): 94%
- Enzyme Activity (%) ([2]; addition 10 mM): 89%

Molecule: CCOC(=O)OC(=O)OCC [DEPC, diethyl pyrocarbonate]
- inactivation by chemical modification (in words) [1]: nearly complete inactivation; also recorded: inactivated
- remaining activity at 500 µM ([1]; 0.25 h): 19%
- remaining activity at 5000 µM ([1]; 0.25 h): 3%

Molecule: O=S(=O)([O-])[O-].[Fe+2] [FeSO4]
- Enzyme Activity (%) ([2]; addition 1 mM): 98%
- Enzyme Activity (%) ([2]; addition 10 mM): 88%

Molecule: Nc1nc2c(ncn2[C@@H]2O[C@H](COP(=O)(O)OP(=O)(O)O)[C@@H](O)[C@H]2O)c(=O)[nH]1 [GDP]
- effect on enzyme (in words) [3]: not inhibited
- effect on enzyme (in words) [4]: inhibited

Molecule: C[S+](C)Cc1cc([N+](=O)[O-])ccc1O.[Br-] [HNBS(CH3)2 --Br, dimethyl-(2-hydroxy-5-nitrobenzyl)sulfonium bromide]
- inactivation by chemical modification (in words) [1]: partially inactivated
- remaining activity at 1000 µM ([1]; 0.25 h): 84%
- remaining activity at 10000 µM ([1]; 0.25 h): 71%

Molecule: O=C(O)CI [IAA, iodoacetic acid]
- remaining activity at 1000 µM ([1]; 0.25 h): 99%
- remaining activity at 10000 µM ([1]; 0.25 h): 89%

Molecule: NC(=O)CI [IAM, iodoacetamide]
- effect on enzyme activity (in words) [1]: no effect; also recorded: partially inactivated
- remaining activity at 1000 µM ([1]; 0.25 h): 97%
- remaining activity at 10000 µM ([1]; 0.25 h): 85%

Molecule: CC(C)(COP(=O)(O)OP(=O)(O)OC[C@H]1O[C@@H](n2cnc3c(N)ncnc32)[C@H](O)[C@@H]1OP(=O)(O)O)[C@@H](O)C(=O)NCCC(=O)NCCSC(=O)CC(=O)O [Malonyl-CoA]
- remaining activity at 100 µM [2]: 93%
- remaining activity at 1000 µM [2]: 83%
- remaining activity at 5000 µM [2]: 52%
- activity at 250 µM [5]: 1%

Molecule: [Cl-].[Cl-].[Mg+2] [MgCl2]
- Enzyme Activity (%) ([2]; addition 1 mM): 95%
- Enzyme Activity (%) ([2]; addition 10 mM): 72%

Molecule: O=S(=O)([O-])[O-].[Mg+2] [MgSO4]
- Enzyme Activity (%) ([2]; addition 1 mM): 98%
- Enzyme Activity (%) ([2]; addition 10 mM): 75%

Molecule: [Cl][Mn][Cl] [MnCl2]
- Enzyme Activity (%) ([2]; addition 1 mM): 84%
- Enzyme Activity (%) ([2]; addition 10 mM): 64%

Molecule: CCCCCCCCCCCCCC(=O)SCCNC(=O)CCNC(=O)[C@H](O)C(C)(C)COP(=O)(O)OP(=O)(O)OC[C@H]1O[C@@H](n2cnc3c(N)ncnc32)[C@H](O)[C@@H]1OP(=O)(O)O [Myristoyl-CoA]
- remaining activity at 100 µM [2]: 93%
- remaining activity at 1000 µM [2]: 83%
- remaining activity at 5000 µM [2]: 52%
- activity at 250 µM [5]: 3%

Molecule: CC(=O)n1ccnc1 [N-acetylimidazole]
- effect on enzyme activity (in words) [1]: caused inactivation
- remaining activity at 1000 µM ([1]; 0.25 h): 101%
- remaining activity at 10000 µM ([1]; 0.25 h): 67%

Molecule: O=C1CCC(=O)N1Br [NBS, N-bromosuccinimide]
- inactivation of the enzyme (in words) [1]: complete inactivation
- remaining activity at 500 µM ([1]; 0.25 h): 30%
- remaining activity at 5000 µM ([1]; 0.25 h): 2%
- inhibition at 500 µM ([1]; 0.25 h, read-out: inactivation of the enzyme): 70%

Molecule: CCN1C(=O)C=CC1=O [NEM, N-ethylmaleimide]
- remaining activity at 1000 µM ([1]; 0.25 h): 94%
- remaining activity at 10000 µM ([1]; 0.25 h): 52%

Molecule: CCC(=O)SCCNC(=O)CCNC(=O)[C@H](O)C(C)(C)COP(=O)(O)OP(=O)(O)OC[C@H]1O[C@@H](n2cnc3c(N)ncnc32)[C@H](O)[C@@H]1OP(=O)(O)O [Propionyl-CoA]
- remaining activity at 100 µM [2]: 92%
- remaining activity at 1000 µM [2]: 89%
- remaining activity at 5000 µM [2]: 72%
- activity at 250 µM [5]: 9%

Molecule: O=C1CCC(=O)O1 [Succinic anhydride]
- effect on enzyme activity (in words) [1]: no effect; also recorded: partial inactivation
- remaining activity at 1000 µM ([1]; 0.25 h): 95%
- remaining activity at 10000 µM ([1]; 0.25 h): 79%

Molecule: CC(C)(COP(=O)(O)OP(=O)(O)OC[C@H]1O[C@@H](n2cnc3c(N)ncnc32)[C@H](O)[C@@H]1OP(=O)(O)O)[C@@H](O)C(=O)NCCC(=O)NCCSC(=O)CCC(=O)O [Succinyl-CoA]
- remaining activity at 100 µM [2]: 92%
- remaining activity at 1000 µM [2]: 79%
- remaining activity at 5000 µM [2]: 56%
- activity at 250 µM [5]: 8%

Molecule: O=S(=O)([O-])[O-].[Zn+2] [ZnSO4]
- Enzyme Activity (%) ([2]; addition 1 mM): 88%
- Enzyme Activity (%) ([2]; addition 10 mM): 25%

Molecule: [Zn+2] [Zn^2+]
- effect on yeast enzyme activity (in words) ([2]; concentration not given): most potent inhibitor

Molecule: NO [hydroxylamine]
- original enzyme activity recovered ([1]; depc-inactivated acetyl-coa hydrolase, 480 min, 250000 µM): ≈ 55%

Molecule: O=C(O)c1cc[c]([Hg][Cl])cc1 [pCMB, p-chloromercuribenzoate]
- Enzyme Activity (%) [1]: 102% and 88%

Molecule: NC(=O)C1=CN([C@@H]2O[C@H](COP(=O)(O)OP(=O)(O)OC[C@H]3O[C@@H](n4cnc5c(N)ncnc54)[C@H](O)[C@@H]3O)[C@@H](O)[C@H]2O)C=CC1 [βNADH]
- effect on enzyme activity (in words) [2]: appreciably decreased enzyme activity
- effect on yeast enzyme activity (in words) [2]: inhibited
- remaining activity at 100 µM [2]: 83%
- remaining activity at 1000 µM [2]: 69%
- remaining activity at 10000 µM [2]: 46%
- effect on enzyme (in words) [3]: inhibited

Molecule: NC(=O)C1=CN([C@@H]2O[C@H](COP(=O)(O)OP(=O)(O)OC[C@H]3O[C@@H](n4cnc5c(N)ncnc54)[C@H](OP(=O)(O)O)[C@@H]3O)[C@@H](O)[C@H]2O)C=CC1 [βNADPH]
- remaining activity at 100 µM [2]: 99%
- remaining activity at 1000 µM [2]: 98%
- remaining activity at 10000 µM [2]: 96%

Molecule: NC(=O)c1ccc[n+]([C@@H]2O[C@H](COP(=O)([O-])OP(=O)(O)OC[C@H]3O[C@@H](n4cnc5c(N)ncnc54)[C@H](O)[C@@H]3O)[C@@H](O)[C@H]2O)c1 [βNAD]
- remaining activity at 100 µM [2]: 100%
- remaining activity at 1000 µM [2]: 98%
- remaining activity at 10000 µM [2]: 95%

Molecule: yeast N-alpha-acetyltransferase (enzyme)
- transfer of [3H] acetyl group from [3H] acetyl-CoA to ACTH (1-24), units [6]: 63300 units
